{
  "source": "patent US5137871A",
  "about": "“Treatment to reduce edema for brain and musculature injuries” (Regents of the University of California, priority 1989, dated 1992)",
  "key": {"ACTH secretion": {"test_system": "ACTH secretion", "conditions": "reported in prior art; cited from earlier work"}, "blood pressure": {"test_system": "blood pressure", "conditions": "reported in prior art; cited from earlier work"}, "[1]": {"test_system": "brain edema after freeze injury", "assay": "Freeze injury to cerebral cortex, brain water and sodium content (brain edema)", "type": "in vivo, rat", "conditions": "CRF 30 μg/kg s.c. 2×, tissues 3 hr after injury, ± S.E.M., N = 5", "protocol": "In a second set of experiments, the brain surface, namely the cerebral cortex, was injured by freezing and the water and sodium content were measured in the cerebral cortex and in the basal ganglia, a part of the brain away from the freeze zone. The water and sodium content of the brain tissue served as an index of brain edema. After freeze injury, the water and sodium content of the cerebral cortex were evaluated relative to non-frozen tissues. CRF administered in two separate doses of 30 μg/kg subcutaneously, one dose 15 min. before the injury and the second dose 90 min. after the first dose, inhibited the two indices of brain edema.\nMale SpragueDawley rats, 300-325 g, anesthetized with\nketamineacepromazine, were injected saline or CRF (30 μg/kg s.c.\n2×) and injury to cerebral cortex was produced by applying a cold\nprobe to the skull for 1 min. Brain tissues were obtained 3 hr later and\nanalyzed for water and sodium content."}, "[2]": {"test_system": "muscle vascular permeability after celiotomy", "assay": "Vascular leakage after celiotomy (4 cm midline incision through abdominal muscle wall), Monastral blue", "type": "in vivo, rat", "conditions": "for Area / Intensity / Lesion Size: tissues taken 0.5 hr after surgery; for vascular leakage (lesion size) relative to that of the saline-treated group: Table III", "protocol": "Experiments were conducted on male Sprague-Dawley rats 243±15 gm (S.D., Simonsen Labs., Gilroy, Calif.) anesthetized with sodium pentobarbital, 60 mg/kg i.p. Monastral blue, 60 mg/kg i.v., was injected 0.2 ml/100 g, 3 min. before a 4 cm midline incision through the abdominal muscle wall (celiotomy). Saline or CRF was administered to randomized pairs with N=8 rats per group. The size of the lesion, measured as area in mm^2, and its light intensity, were quantified using the JAVA image-analysis software program. The light intensity, given in arbitrary units, was internally calibrated using Monastral blue solutions (1-30 mg/ml) placed on white filter paper. Values are mean ± S.E.M. FIG. 2 illustrates the respective amount of vascular permeability for one pair of rats (control and treated). Tables III and IV set out data from these experiments.\nCRF: injected at various doses subcutaneously 30 min\nbefore a 4 cm midline incision, tissues taken 0.5 hr\nCRF: 30 μg/kg s.c. injected 2 hr before a 4 cm midline\nincision, tissues taken 0.5 hr after surgery"}, "edema of rat pawskin": {"test_system": "edema of rat pawskin", "conditions": "mediators injected into the rat pawskin; previously shown; cited from earlier work"}, "[3]": {"test_system": "brain vascular permeability after cold injury", "assay": "Cold (freeze) injury to brain, vascular leakage by Monastral blue staining", "type": "in vivo, rat", "description": "An in vivo model of injury to study brain edema has been developed as a reproducible edema model, which has the features of immediate cortical damage followed by the subsequent development of brain edema. This model is described by Chan et al., Brain Research 277, pp. 329-337 (1983). The model uses rats which are anesthetized. A 2.5 cm incision is made over the sagittal suture and the bone of the right hemisphere exposed. A 60 mm^2 plate attached to a brass cup filled with dry ice-acetone mixture, with a temperature of -50° C., is applied to the rat skull for one minute. The animals are sacrificed at various intervals after the onset of cold-injury. A dye is administered intravenously before the freezing. Cortical slices are then obtained of the brain.\n16 male rats were randomly divided into eight pairs and one rat in each pair received either saline or CRF (subcutaneously twice at 30 μg/kg, 30 min and 10 min before cold injury). The animals were anesthetized with sodium pentobarbital, 60 mg/kg intraperitoneally, and injected with Monastral blue, 60 mg/kg intravenously. A cold probe was applied onto the skull for […] and the brains taken out 1 hour after cold injury. The staining of brain tissues with Monastral blue, a colloidal pigment that gets trapped between the albuminal surface of the endothelial cell and the basement membrane, was proportional to the degree of vascular leakage. The results from the first pair are shown as FIG. 1.\nThe size of the lesion, measured as area in mm^2, and the degree of staining intensity, were quantified using an image-analysis software program called JAVA (Jandel Corporation, San Rafael, Calif.). The stain intensity, given in arbitrary units, was internally calibrated using Monastral blue solutions (1-30 mg/ml) placed on white filter paper. Values are mean ± S.E.M."}, "[4]": {"test_system": "PAF-acether induced vascular leakage in muscle", "assay": "Vascular leakage produced by PAF-acether injected subcutaneously into the abdomen", "type": "in vivo, rat", "protocol": "CRF: 30 μg/kg s.c. injected 30 min before subcutaneous\ninjection of PAF-acether (1 μg/0.1 ml/rat) into the\nabdomen; muscle removed 0.5 hr later."}, "[5]": {"conditions": "CRF 15 μg/kg s.c. 30 min before incision"}, "[6]": {"conditions": "CRF 30 μg/kg s.c. 30 min before incision"}, "[7]": {"conditions": "CRF 30 μg/kg s.c. 2 hr before incision"}, "[8]": {"conditions": "CRF 60 μg/kg s.c. 30 min before incision"}, "[9]": {"conditions": "rat, CRF 30 μg/kg s.c. twice, 30 min and 10 min before cold injury, brains taken 1 hour after injury, mean ± S.E.M."}, "[10]": {"conditions": "CRF 30 μg/kg s.c. 30 min before PAF-acether 1 μg/0.1 ml/rat s.c., muscle removed 0.5 hr later"}},
  "note": "No end group written: not given here.",
  "data": [
    {"molecule": "CC[C@H](C)[C@H](NC(=O)[C@@H](NC(=O)[C@H](CC(=O)O)NC(=O)[C@H](CC(C)C)NC(=O)[C@H](CC(C)C)NC(=O)[C@H](CC(C)C)NC(=O)[C@H](CCCNC(=N)N)NC(=O)[C@H](CC(N)=O)NC(=O)[C@H](CC(N)=O)NC(=O)[C@H](C)NC(=O)[C@H](C)NC(=O)[C@H](CCC(N)=O)NC(=O)[C@H](CCC(N)=O)NC(=O)[C@H](CCCCN)NC(=O)[C@H](CCC(=O)O)NC(=O)[C@H](CCCCN)NC(=O)[C@H](CCC(=O)O)NC(=O)[C@H](CCC(N)=O)NC(=O)[C@H](CCCCN)NC(=O)[C@H](CCC(=O)O)NC(=O)[C@@H](NC(=O)[C@H](CCC(=O)O)NC(=O)[C@@H](NC(=O)[C@H](CCSC)NC(=O)[C@H](CCCCN)NC(=O)[C@H](CCCNC(=N)N)NC(=O)[C@H](CC(C)C)NC(=O)[C@H](CC(C)C)NC(=O)[C@H](CCC(=O)O)NC(=O)[C@H](CC(C)C)NC(=O)[C@H](CO)NC(=O)[C@H](CC(C)C)NC(=O)[C@H](CC(=O)O)NC(=O)[C@@H](NC(=O)[C@H](CO)NC(=O)[C@@H](NC(=O)[C@@H]1CCCN1C(=O)[C@@H]1CCCN1C(=O)CNC(=O)[C@@H]1CCC(=O)N1)[C@@H](C)CC)[C@@H](C)CC)[C@@H](C)CC)[C@@H](C)CC)[C@@H](C)O)C(N)=O", "note": "[Sauvagine]", "values": [
      {"measurement": "effect on ACTH secretion", "setting": "ACTH secretion", "result": "stimulating the secretion of ACTH"},
      {"measurement": "effect on blood pressure", "setting": "blood pressure", "result": "lowering blood pressure"}
    ]},
    {"molecule": "H-Asn-Asp-Asp-Pro-Pro-Ile-Ser-Ile-Asp-Leu-Thr-Phe-His-Leu-Leu-Arg-Asn-Met-Ile-Glu-Met-Ala-Arg-Asn-Glu-Asn-Gln-Arg-Glu-Gln-Ala-Gly-Leu-Asn-Arg-Lys-Tyr- Leu-Asp-Glu-Val-NH2 (H-NDDPPISIDLTFHLLRNMIEMARNENQREQAGLNRKYLDEV-NH2) [carp urotensin]", "values": [
      {"measurement": "effect on ACTH secretion", "setting": "ACTH secretion", "result": "stimulate ACTH"},
      {"measurement": "effect on blood pressure", "setting": "blood pressure", "result": "lower blood pressure"}
    ]},
    {"molecule": "Ser-Gln-Glu-Pro-Pro-Ile-Ser-Leu-Asp-Leu-Thr-Phe-His-Leu-Leu-Arg-Glu-Val-Leu-Glu-Met-Thr-Lys-Ala-Asp-Gln-Leu-Ala-Gln-Gln-Ala-His-Ser-Asn-Arg-Lys-Leu-Leu-Asp-Ile-Ala-NH2 (SQEPPISLDLTFHLLREVLEMTKADQLAQQAHSNRKLLDIA-NH2) [oCRF]", "values": [
      {"measurement": "effect on blood pressure", "setting": "blood pressure", "result": "lower blood pressure"}
    ]},
    {"molecule": "Ser-Glu-Glu-Pro-Pro-Ile-Ser-Leu-Asp-Leu-Thr-Phe-His-Leu-Leu-Arg-Glu-Val-Leu-Glu-Met-Ala-Arg-Ala-Glu-Gln-Leu-Ala-Gln-Gln-Ala-His-Ser-Asn-Arg-Lys-Leu-Met-Glu-Ile-Ile-NH^2 (SEEPPISLDLTFHLLREVLEMARAEQLAQQAHSNRKLMEII-NH2) [CRF, 41 amino acid neuropeptide]", "values": [
      {"measurement": "effect on ACTH secretion", "setting": "ACTH secretion", "result": "stimulates ACTH release from pituitary cells"},
      {"measurement": "SODIUM", "setting": "[1]; BASAL GANGLIA (non-injured)", "result": "215 ± 9", "unit": "mEg/kg dry wt"},
      {"measurement": "WATER CONTENT", "setting": "[1]; BASAL GANGLIA (non-injured)", "result": "76 ± 1", "unit": "%"},
      {"measurement": "SODIUM", "setting": "[1]; CEREBRAL CORTEX (injured)", "result": "271 ± 8", "unit": "mEg/kg dry wt"},
      {"measurement": "WATER CONTENT", "setting": "[1]; CEREBRAL CORTEX (injured)", "result": "77 ± 4", "unit": "%"},
      {"measurement": "Area", "setting": "[2]; [5]", "result": "505 ± 16", "unit": "mm^2"},
      {"measurement": "Intensity", "setting": "[2]; [5]", "result": "2.0 ± 0.03", "unit": "arbitrary units"},
      {"measurement": "Lesion Size", "setting": "[2]; [5]", "result": "1031 ± 44"},
      {"measurement": "Area", "setting": "[2]; [6]", "result": "361 ± 18", "unit": "mm^2"},
      {"measurement": "Intensity", "setting": "[2]; [6]", "result": "1.9 ± 0.05", "unit": "arbitrary units"},
      {"measurement": "Lesion Size", "setting": "[2]; [6]", "result": "676 ± 47"},
      {"measurement": "Area", "setting": "[2]; [7]", "result": "477 ± 31", "unit": "mm^2"},
      {"measurement": "Intensity", "setting": "[2]; [7]", "result": "1.9 ± 0.03", "unit": "arbitrary units"},
      {"measurement": "Lesion Size", "setting": "[2]; [7]", "result": "919 ± 51"},
      {"measurement": "Area", "setting": "[2]; [8]", "result": "257 ± 3", "unit": "mm^2"},
      {"measurement": "Intensity", "setting": "[2]; [8]", "result": "1.8 ± 0.05", "unit": "arbitrary units"},
      {"measurement": "Lesion Size", "setting": "[2]; [8]", "result": "468 ± 19"},
      {"measurement": "vascular leakage (lesion size) relative to that of the saline-treated group", "setting": "[2]; [5]", "result": 63, "unit": "%"},
      {"measurement": "vascular leakage (lesion size) relative to that of the saline-treated group", "setting": "[2]; [6]", "result": 42, "unit": "%"},
      {"measurement": "vascular leakage (lesion size) relative to that of the saline-treated group", "setting": "[2]; [8]", "result": 29, "unit": "%"},
      {"measurement": "lesion size relative to that of the saline-treated group", "setting": "[2]; Table IV, CRF 30 μg/kg s.c. 2 hr before incision", "result": 59, "unit": "%"},
      {"measurement": "effect on edema produced by serotonin, substance P, bradykinin, neurotensin, histamine", "setting": "edema of rat pawskin", "result": "antagonize the edema-producing properties"},
      {"measurement": "lesion size relative to that of the saline-treated group", "setting": "[3]; Table I, brain cold injury, CRF 30 μg/kg s.c. twice", "result": 44, "unit": "%"},
      {"measurement": "correct assignment of brains to saline or CRF group by an observer unaware of pretreatment", "setting": "[3]; eight pairs of rats, more damaged vs less damaged brain", "result": "8 out of 8"},
      {"measurement": "Area", "setting": "[3]; [9]", "result": "20.8 ± 1.2", "unit": "mm^2"},
      {"measurement": "Intensity (staining intensity)", "setting": "[3]; [9]", "result": "2.0 ± 0.05", "unit": "arbitrary units"},
      {"measurement": "Lesion Size", "setting": "[3]; [9]", "result": "43 ± 3"},
      {"measurement": "Area", "setting": "[4]; [10]", "result": "188 ± 16", "unit": "mm^2"},
      {"measurement": "Intesnity", "setting": "[4]; [10]", "result": "1.4 ± 0.05"},
      {"measurement": "Lesion Size", "setting": "[4]; [10]", "result": "260 ± 26"},
      {"measurement": "muscle lesion size relative to that of the saline-treated control group", "setting": "[4]; Table V, CRF 30 μg/kg s.c.", "result": 44, "unit": "%"}
    ]}
  ]
}
